Experimental data as given in patent US12622906B2, “Treatment and prognosis of pancreatic cancer” (Cambridge Enterprise Limited, priority 2019, dated 2026).

Legend:
PDAC cells = experiment: 3D in vitro assay of invasion, PDAC cells co-cultured with BMDM (IncuCyte Zoom, NeuroTrack); format: cell-based, murine; conditions: 3D co-culture of PDAC cells with BMDM; pre-treatment 24 hours or treatment at time of co-culture
Method: Cell-matrix cultures were performed by seeding PDAC cells onto wells pre-coated with 1 mg/mL Matrix Growth Factor Reduced Matrigel (Becton Dickinson). To observe cell invasion through Matrigel, plates were placed into IncuCyte Zoom (Essen Bioscience) with the software set to capture images every 3 hours in green and fluorescent protein (GFP/RFP)/Bright Field (or Phase Contrast).
For co-cultures, mCherry-labelled PDAC cells were mixed 1:1 with ZsGreen-labelled macrophages, typically primary BMDM unless otherwise noted. Co-cultures were seeded and kept as subconfluent cultures for 48-96 hours in either 2D or 3D conditions.
To quantify the invasive capacity of PDAC cells, 3D in vitro invasion assays were quantified using software provided by Essen Bioscience, NeuroTrack. […] Unlike high-content imaging systems, which require fixation, staining, and endpoint analysis of cells, the algorithm measured live-cell dynamics. […] Once parameters were defined, they were applied to all 3D in vitro invasion assays for quantification.
The NeuroTrack software measures fluorescent-labelled cells. […] In this method, only PDAC cells that have invaded out of 3D structures are counted if they have a fluorescent mCherry label present in their nucleus. Data is plotted with number of nuclei counted on the y-axis and time on the x-axis. […]

[1] = tested on: fibroblasts and macrophages; experiment: Viability of non-cancerous cells treated with CCR1 antagonist; format: cell-based; conditions: compared with vehicle control
CCR1 expression = CCR1 expression in PDAC cells after prolonged co-culture with BMDM (qRT-PCR, flow cytometry); format: cell-based, murine; conditions: PDAC cells co-cultured with BMDM; by qRT-PCR and flow cytometry
Method: Culture conditions for PDAC and BMDM cell lines used in this study are described above. For co-cultures, mCherry-labelled PDAC cells were mixed 1:1 with ZsGreen-labelled macrophages, typically primary BMDM unless otherwise noted. Co-cultures were seeded and kept as subconfluent cultures for 48-96 hours in either 2D or 3D conditions.
Total RNA was isolated and purified from cells using Qiazol reagent and miRNeasy mini kit (Qiagen). cDNA was synthesized using the High Capacity RNA-to-cDNA kit (ABI) according to manufacturer's instructions. qRT-PCR was performed using Power SYBR Green PCR Master Mix (ABI) on the TaqMan 7900 (ABI). Relative expression levels were defined using the ΔΔCt method and normalizing to 18S rRNA and/or GAPDH.
Pre-treatment: PDAC cells and BMDM were pre-treated with CCR1 antagonists 24 hours prior to the start of the experiment, harvested and then seeded according to the co-culture method previously described for the duration of the experiment.
Treatment at time of co-culture: PDAC cells and BMDM were seeded according to the co-culture method as previously described and CCR1 antagonists were treated at the time of seeding and allowed to incubate for the duration of the experiment. […]

Compound	macrophage-mediated pro-invasive phenotype of PDAC cells (PDAC cells)	viability of fibroblasts and macrophages [1]	induction of CCR1 expression due to prolonged co-culture (CCR1 expression)
C[C@@H]1CN(Cc2ccc(F)cc2)CCN1C(=O)COc1ccc(Cl)cc1NC(N)=O [BX-471, (2R)-1-[[2-[(Aminocarbonyl)amino]-4-chlorophenoxy]acetyl]-4-[(4-fluorophenyl)methyl]-2-methylpiperazine]	striking ability to rein in the effect of macrophages to confer functional pro-invasive abilities to PDAC cells	just as viable as cell treated with vehicle control	
CC[N@+]1(C/C2=C/CCCCCC2)CC[C@@H](NC(=O)C2c3cc(Cl)ccc3Oc3ccc(Cl)cc32)CC1.[I-] [J113863, 1,4-cis-1-(1-cycloocten-1-ylmethyl)-4-[[(2,7-dichloro-9H-xanthen-9-yl)carbonyl]amino]-1-ethylpiperidinium iodide]	striking ability to rein in the effect of macrophages to confer functional pro-invasive abilities to PDAC cells		blunting the induction of CCR1 expression
